Laboratory results published in article PMC8408635 (The Journal of Biological Chemistry, 2021).

Tested on: PniDAH7PS
Conditions: read-out: CM activity / KM, 50 mM BTP pH 7.4, 35 °C

Question: Which Km does the source give for C=C(O[C@@H]1C=C(C(=O)O)C=C[C@H]1O)C(=O)O [chorismate] here?
Answer: 21 ± 2 µM
